Test results from patent publication EP0381959B1, “Cyclohexaneacetamide derivatives” (F. HOFFMANN-LA ROCHE AG, priority 1989, dated 1990).

Tested on: male C57Bl/10 mice
Experiment: Morris water maze task (latency to locate hidden platform)
Format: in vivo
Conditions: Dose-Response (IP), intraperitoneal, dissolved in saline, 30 minutes prior to testing
Source text: The test animals were male C57Bl/10 mice, weighing 17-21 grams at the time of testing. Mice were housed in groups of 10 and had ad lib access to food and water. Mice of this strain appear to be deficient in learning the water maze task and are therefore suitable for use in drug evaluation.[Symons, J.P., Davis, R.E., and Marriott J.G. Life Sciences, 1988, 42, 375-383.] The Morris water maze task requires an animal to attend to spatial cues in order to locate the position of a hidden platform submerged underwater. [Morris, B. G. Learning and Motivation , 1981, 12, 239-260, and Symons, J.P., Davis, R.E., and Marriott J.G. Life Sciences, 1988, 42, 375-383.] The maze consisted of a 60 cm x 60 cm x 60 cm transparent plexiglas chamber filled to a depth of 30 cm, leaving 30 cm of wall extended up from the water surface. The water was made opaque by the addition of powdered milk. The water temperature was maintained at 20 °C. Both distal cues (i.e., standard room objects) and proximal cues (that is, 20 cm x 22 cm unique black and white patterns pasted to the center of each of the four walls of the maze) were used. The submerged platform, 8 x 8 cm, 1 cm below the water's surface was positioned near one of the four corners of the maze. […] The time required for each animal to locate the platform on each of the four trials was recorded (latency). […]

In the case of `NC(=O)[C@@H]1CCCN1C(=O)[C@H](Cc1c[nH]cn1)NC(=O)[C@@H]1CCC(=O)N1` [TRH, pGlu-His-ProNH₂], the “Active Dose Range” value is reported as 0.1 to 0.3 mg/kg.
